Laboratory results reported in patent publication US9387221B2, “SDF-1 binding nucleic acids and the use thereof in cancer treatment” (NOXXON Pharma AG, priority 2010, dated 2016).
{PEG40k} = 40 kDa polyethylene glycol

How the values were obtained:
[1] = test system: stromal MS-5 cells; assay: Viability of stromal MS-5 cells in the coculture; type: cell-based, murine
Description: The murine stromal cell line MS-5 (ACC 441) was purchased from the DSMZ, the Multiple Myeloma cell line RPMI8226 (CCL-155) was purchased from the ATCC. The Multiple Myeloma cell line RPMI8226 was maintained in RPMI medium 1640 GlutaMAX (Invitrogen) supplemented with 10% FBS (Biochrom) and penicillin-streptomycin, the MS-5 cells were cultured in MEM alpha GlutaMAX (Invitrogen) with 10% FBS and penicillin-streptomycin. For chemosensitization coculture experiments stromal MS-5 cells were seeded the day before onto 24-well plates (the inner eight wells) at a concentration of 8×10^4/mL/well in MEM alpha GlutaMAX medium (+10% FBS) and incubated at 37° C. in 5% CO2. The confluent stromal cell layer was washed and 0.5 mL RPMI medium 1640 (+1% FBS) was added to the wells. SDF-1 binding […] NOX-A12 or revNOX-A12 was subsequently added to the wells to a final concentration of 100 nM and incubated for four hours. 3.5×10^5 RPMI8226 cells in RPMI medium 1640 (+1% FBS) were added to the stromal cell layer. Four hours later, 1 μ[…] (Sigma Aldrich) was added to the cells when indicated. After 40 hours of incubation the cells were collected in 15 mL tubes, first the supernatant was harvested and then the attached cells were trypsinized including MS-5 cells. […] Cell viability and cell number were determined by Flow Cytometry using the Guava EasyCyte 6HT/2L (Millipore).

[2] = target: SDF-1 (Homo sapiens, UniProt P48061); assay: Inhibition of SDF-1-induced chemotaxis, BV-173 cells; type: cell-based; details: 3 nM human SDF-1
Description: The human T cell leukemia cell line Jurkat, the human leukemic monocyte lymphoma cell line U937, the human pre-B cell leukemia cell line BV-173 and human pre-B ALL cell line Nalm-6 express CXCR4. […] All cells used were obtained from the DSMZ (Braunschweig). All cell lines were cultivated at 37° C. and 5% CO2 in RPMI 1640 medium with Glutamax (Invitrogen, Karlsruhe, Germany) which contains 10% fetal bovine serum, 100 units/ml penicillin and 100 μg/ml streptomycin (Invitrogen, Karlsruhe, Germany). One day before the experiment, cells were seeded in a new T175 flask with a density of 0.3×10^6/ml (Jurkat, U937, BV-173) or 0.75×10^6/ml (Nalm-6), respectively.
For the experiment, cells were centrifuged (5 min at 300 g), resuspended, counted and washed once with 15 ml HBH (Hanks balanced salt solution containing 1 mg/ml bovine serum albumin and 20 mM HEPES; Invitrogen, Karlsruhe, Germany). Then the cells were resuspended at 1.33×10^6/ml (Jurkat, U937, BV-173) or 2.67×10^6/ml (Nalm-6), respectively. […]
For evaluation, fluorescence values were corrected for background fluorescence (no cells in well). Then the difference between experimental conditions with and without SDF-1 was calculated. The value for the sample without Spiegelmer (SDF-1 only) was set 100% and the values for the samples with Spiegelmer were calculated as percent of this. […]

[3] = test system: RPMI-8226 MM cells; assay: Chemosensitization coculture of RPMI-8226 MM cells with stromal MS-5 cells; type: cell-based; details: 100 nM NOX-A12, 1 μM F-ara-A, 40 hours
Description: In order to mimic the in vivo interaction of the BM microenvironment with leukemia cells, an in vitro coculture system with murine BM stromal MS-5 cells and the multiple myeloma (abbr. MM) cell line RPMI 8226 was established. Aim of the experiment was to show whether SDF-1 binding […] NOX-A12 sensitizes MM cells in coculture with stromal cells to effects of chemotherapeutic agents. Stromal MS-5 cells secreting SDF 1 were incubated with SDF-1 binding […] NOX-A12 or the non-functional revNOX-A12. The MM cell line RPMI-8226 was added to the confluent stromal cell layer. The cells were then incubated with the chemotherapeutic agent F ara A (Fludarabine) for 40 hours. Cell Viability viability was measured. The murine stromal cell line MS-5 (ACC 441) was purchased from the DSMZ, the Multiple Myeloma cell line RPMI8226 (CCL-155) was purchased from the ATCC. The Multiple Myeloma cell line RPMI8226 was maintained in RPMI medium 1640 GlutaMAX (Invitrogen) supplemented with 10% FBS (Biochrom) and penicillin-streptomycin, the MS-5 cells were cultured in MEM alpha GlutaMAX (Invitrogen) with 10% FBS and penicillin-streptomycin. […] Cell viability and cell number were determined by Flow Cytometry using the Guava EasyCyte 6HT/2L (Millipore).

Sequence of SDF-1 (P48061 22-89): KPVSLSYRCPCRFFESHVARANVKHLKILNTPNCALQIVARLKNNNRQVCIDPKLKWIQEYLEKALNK

Which “viability of stromal MS-5 cells” value [1] does the source give for “5′-40 kDa-PEG-GCGUGGUGUGAUCUAGAUGUAUUGGCUGAUCCUAGUCAGGUACGC (5' {PEG40k}, sugars by position and backbone not given here) [NOX-A12]” here?
The value was “neither affected”.

And the “inhibition of SDF-1 induced chemotaxis” value [2]?
Its value is “Inhibition”.

And the “cell viability of RPMI-8226 cells cocultured with stromal MS-5 cells” value [3]?
Its value is “only slightly affected”.
